{"source": "PubChem BioAssay AID1645871", "data": [{"conditions": "pampa; pH 5.0; 30.0 min; 50.0 µM", "units": {"Papp": "×10⁻⁶ cm/s"}, "values": [{"compound": "COc1ccccc1N1CCN(CCN(C(=O)c2ccc(I)cc2)c2ccccn2)CC1", "Papp": 758}, {"compound": "CCN1CCCC1CNC(=O)c1cc(S(=O)(=O)CC)c(N)cc1OC", "note": "(stereo not drawn)", "Papp": 6.63}, {"compound": "c1ccc(-c2cn[nH]c2)cc1", "Papp": 51.2}, {"compound": "CC(=O)NCCNC(=O)c1ccc(-c2ncc3cnc(-c4cccc(F)c4)cn23)cc1", "Papp": 7.62}, {"compound": "Cc1c(C(=O)NN2CCCCC2)nn(-c2ccc(Cl)cc2Cl)c1-c1ccc(Cl)cc1", "Papp": "> 1000"}, {"compound": "CCOc1ccc(C2c3c(oc4ccc(C)cc4c3=O)C(=O)N2CCCN(C)C)cc1", "note": "(stereo not drawn)", "Papp": 29.6}, {"compound": "COc1ccc(Cn2c(C(=O)O)c(CNCc3ccco3)c3ccc(C)cc32)cc1", "Papp": 618}, {"compound": "Cc1ccc(C(=O)Nc2ccc3oc(-c4cccnc4)nc3c2)cc1[N+](=O)[O-]", "Papp": 693}, {"compound": "Cc1ccc(-n2nc3c(=O)n(CCCC(=O)NC(C)c4ccccc4)nc(C)c3c2C)cc1", "note": "(stereo not drawn)", "Papp": 562}, {"compound": "Cc1ccc(NC(=O)c2c(N3CCCC3=O)c3cc(C)ccc3n2C)c(C)c1", "Papp": "> 1000"}, {"compound": "CCC(=O)N1CCN(c2ccc(-n3c(=O)ccc4cnc5ccc(-c6cnc7ccccc7c6)cc5c43)cc2C(F)(F)F)CC1", "Papp": 537}, {"compound": "CCOc1ccccc1C(=O)Nc1ncccc1C(=O)Nc1cccc(S(=O)(=O)C(F)(F)F)c1", "Papp": 656}, {"compound": "Cn1ncnc1[C@H]1c2n[nH]c(=O)c3cc(F)cc(c23)N[C@@H]1c1ccc(F)cc1", "Papp": 46.2}, {"compound": "CN1CCN(c2ccc(Nc3c4ccccc4nc4ccccc34)cc2)CC1", "Papp": 3.75}, {"compound": "COCCNC(=O)[C@H]1C[C@H](Oc2ccccc2)CN1Cc1ccc2[nH]ccc2c1", "Papp": 186}, {"compound": "Cc1cc(C)nc(NC(=S)N2CCN(Cc3ccc(C(F)(F)F)cc3)CC2)c1", "Papp": "> 1000"}, {"compound": "COc1ccccc1Nc1ccnc(N2CCN(C(=O)c3ccccc3Cl)CC2)n1", "Papp": 35.8}, {"compound": "CCOC(=O)NNc1ccc(N(CC)CC(C)O)nn1", "note": "(stereo not drawn)", "Papp": 8.57}, {"compound": "O=c1[nH]c(C2CCCN(CC3CCCCC3)C2)nn1-c1ccc(Cl)cc1", "note": "(stereo not drawn)", "Papp": "> 1000"}, {"compound": "COc1ccc(-n2nc(C3CCN(C(=O)c4ccccc4)CC3)[nH]c2=O)cc1", "Papp": 250}, {"compound": "CCc1ccccc1Nc1ncnc2c1cnn2-c1ccc(Cl)cc1", "Papp": 100}, {"compound": "COc1ccc(-n2nc(C)c([C@@H]3C=C[C@@H](NCc4ccc(F)cc4)C3)c2C)cc1", "Papp": 482}, {"compound": "COc1ccccc1Nc1cnc2ccc(-c3ccc(OC)c(OC)c3)nn12", "Papp": 621}, {"compound": "COc1cc([C@@H](CC(=O)O)c2ccc(C)c(CN3C[C@@H](C)Oc4ccccc4S3(=O)=O)c2)cc2nnn(C)c12", "Papp": 898}, {"compound": "COc1ccc(-n2nc(C3CCCN(CC4CCCCC4)C3)[nH]c2=O)cc1", "note": "(stereo not drawn)", "Papp": 322}, {"compound": "CCN(CC)CCOc1ccc(Cc2ccccc2)cc1", "Papp": 236}, {"compound": "O=C(Nc1ccc(Cl)cc1)C(NS(=O)(=O)c1cccs1)c1ccccc1", "note": "(stereo not drawn)", "Papp": 443}, {"compound": "CN(C)c1ccc(CN2CCNc3cc(Nc4ccccc4)ncc3C2)cc1", "Papp": 107}, {"compound": "O=C(NCCCNc1nc(Nc2cccc(CN3CCOCC3)c2)ncc1C1CC1)C1CCC1", "Papp": 8.82}, {"compound": "O=C(NCc1ccc(S(=O)(=O)c2cccc(C(F)(F)F)c2)cc1)c1cnc2[nH]ncc2c1", "Papp": 362}, {"compound": "Cc1ccc(C)c(CN2C(=O)c3ccccc3S(=O)c3ccc(C(=O)N4CCN(c5ccccc5F)CC4)cc32)c1", "note": "(stereo not drawn)", "Papp": 932}, {"compound": "Cn1nnnc1Sc1ncnc2scc(-c3ccccc3F)c12", "Papp": 451}, {"compound": "Cc1nn2c(c1-c1ccccc1-c1ccccc1)N(CC1CC1)CCC2", "Papp": "> 1000"}, {"compound": "CCc1ccccc1-n1c(SCC(=O)Nc2ccc(C)cc2)nc2n[nH]c(C)c2c1=N", "Papp": "> 1000"}, {"compound": "CN(C)c1cccc(-c2cnc(Nc3cccnc3)c3c2CCO3)c1", "Papp": "> 1000"}, {"compound": "COc1ccc(-n2nc(C3CCCN(C(=O)c4ccccc4F)C3)[nH]c2=O)cc1", "note": "(stereo not drawn)", "Papp": 341}, {"compound": "Cc1ccc(-c2ccc(CNc3nc(-c4ccccc4C(C)C)nc4ccccc34)cc2)cn1", "Papp": 857}, {"compound": "O=C(NCc1ccccc1)c1nc(S(=O)(=O)Cc2ccc(F)cc2)ncc1Cl", "Papp": 296}, {"compound": "CC(=O)NCCNC[C@@H]1C=C(C)[C@H](Cc2nnc(-c3ccccc3)o2)C[C@H]1C(C)C", "Papp": 25.8}, {"compound": "CCCCCn1cc2c(c1-c1ccc(Br)cc1)c(=O)n(C)c(=O)n2C", "Papp": 946}, {"compound": "Cn1cnc2c(F)c(Nc3ccc(Br)cc3Cl)c(C(=O)NOCCO)cc21", "Papp": 151}, {"compound": "O=C(O)C1CCN(c2ncc(-c3ccc4c(c3)OCCCO4)s2)CC1", "Papp": "> 1000"}, {"compound": "COc1ccc(-c2[nH]nc3ncc(-c4ccc(CO)cc4)nc23)cc1F", "Papp": 428}, {"compound": "COc1ccc(-n2nc(C3CCCN(C(=O)Nc4ccccc4)C3)[nH]c2=O)cc1", "note": "(stereo not drawn)", "Papp": 315}, {"compound": "O=C(O)c1cccc(-c2noc(-c3ccccc3F)n2)c1", "Papp": 892}, {"compound": "CN(C)CCCn1cc(C2=C(c3c[nH]c4ccccc34)C(=O)NC2=O)c2ccccc21", "Papp": 39.3}, {"compound": "COc1cc(C(=O)N2CCN(c3cc(Cl)ccc3Cl)CC2)cc(OC)c1OC", "Papp": "> 1000"}, {"compound": "CCOc1ccc(Nc2nc(C)c(NC(=O)c3ccc(C)cc3)c(Nc3ccc(OCC)cc3)n2)cc1", "Papp": 59}, {"compound": "O=C(Nc1ccc(N2CCC(N3CCCCC3)CC2)c(C(=O)O)c1)c1ccc(Br)cc1", "Papp": 7.15}, {"compound": "COc1ccc(-c2ccc3ncc(Nc4ccc(C(N)=O)cc4)n3n2)cc1OC", "Papp": 81.8}, {"compound": "O=C(O)c1cnc(-c2ccc(F)cc2)nc1-c1ccncc1", "Papp": 38.3}, {"compound": "Fc1ccc(CNc2cc3c(cn2)CN(Cc2ccncc2)CCN3)cc1", "Papp": 14.3}, {"compound": "COC(=O)[C@@H]1C[C@H](OC(C)=O)C(=O)[C@H]2[C@@]1(C)CC[C@H]1C(=O)O[C@H](c3ccoc3)C[C@]21C", "Papp": 381}]}]}
